Like-named read-outs stand apart in the source and are kept apart here.
Tests used:
[1] = target: T1, OR5AN1 olfactory receptor (Homo sapiens, UniProt Q8NGI8); test: MUSCENONE®/musk dose-response on OR5AN1 in presence and absence of putative modulator (EC50 shift, span); assay type: cell-based; details: FIG. 6; MUSCENONE® dose response in the presence of 250 μM compound
T1 construct: expressed in transfected cells
T1 sequence (Q8NGI8 1-311): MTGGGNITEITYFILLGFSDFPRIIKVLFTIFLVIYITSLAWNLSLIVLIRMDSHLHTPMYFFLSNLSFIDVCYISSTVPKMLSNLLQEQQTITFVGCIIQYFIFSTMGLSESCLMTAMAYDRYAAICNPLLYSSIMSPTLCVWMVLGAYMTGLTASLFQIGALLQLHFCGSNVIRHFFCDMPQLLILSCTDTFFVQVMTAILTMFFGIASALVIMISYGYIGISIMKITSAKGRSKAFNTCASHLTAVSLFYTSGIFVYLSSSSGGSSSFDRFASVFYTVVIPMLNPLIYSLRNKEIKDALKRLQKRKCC

[2] = target: T1, OR5AN1 olfactory receptor; test: Single point binary mixture screen (MUSCENONE® + test compound) on a cell line expressing OR5AN1; assay type: cell-based; details: MUSCENONE® 10 μM + test compound 500 μM, compared to MUSCENONE® alone
Experimental: 481 binary mixtures were created by mixing a MUSCENONE® stock solution with a stock solution of each test compound to a final concentration 10 and 500 μM, respectively. Stock solutions were made of compounds dissolved in pure DMSO. Each mixture was presented to a cell line expressing the OR5AN1 olfactory receptor. The final concentration of DMSO in each binary mixture was 0.17%, and had no visible effect on the cells
The resulting activation was then measured and compared to MUSCENONE® alone (defining the baseline of the enhancement assay). The quality of the HTS process was determined and the window variability and signal reliability were assessed by calculating the Z′ value of each plate. Twenty hits were obtained, five of which were macrocyclic ketone and nitromusk OR5AN1 olfactory receptor agonists (hit n° 1, 2, 3, 5 and 9). These OR5AN1 olfactory receptor agonists further confirmed that the dynamic range of the assay window was sufficient (as the responses recorded were well above baseline) and thus likely sensitive enough to detect even low levels of putative enhancement.

[3] = target: T1, OR5AN1 olfactory receptor; test: Allosteric EC50 shift analysis: MUSCENONE® dose response with serial concentrations of enhancer; assay type: cell-based; details: same method as for TDA
Experimental: The level of enhancement of the OR5AN1 olfactory receptor activation was evaluated at distinct concentrations of the enhancer. […] The curves were obtained by applying the simplified Allosteric EC50 shift effect equation (available in Prism5, v. 5.02) derived from the ternary complex interaction model.

[4] = target: T1, OR5AN1 olfactory receptor; test: MUSCENONE®/musk dose-response on OR5AN1 in presence and absence of putative modulator (EC50 shift, span); assay type: cell-based; details: MUSCENONE® dose response in the presence of 250 μM compound
Experimental: Next, two parallel dose-response experiments to confirm the true enhancement properties of the potential candidates were performed. First, a dose-response of each individual candidate was performed to determine if it was an agonist by itself.
The resulting enhancement was quantified by means of EC50-fold shift (potency increase) and the efficacy span ratio (efficacy increase).
The EC50-fold shift was obtained by dividing the EC50 of MUSCENONE® +compound by the reference EC50 MUSCENONE® alone. The span ratio was obtained by dividing the span of MUSCENONE®+compound by the reference span of MUSCENONE® alone.

[5] = target: T1, OR5AN1 olfactory receptor; test: Response of the OR5AN1 olfactory receptor to musk compounds (HTRF); assay type: cell-based
OR5AN1 allele 3 = test: Cell based assay of hypofunctional OR5AN1 allele 3 with and without enhancer; design: species or system human
OR5AN1 allele 4 = test: Cell based assay of hypofunctional OR5AN1 allele 4 with and without enhancer; design: species or system human
[6] = Odor detection threshold (ODT) forced-choice triangle test with background odor; assay type: in vivo, human
Experimental: Sensitivity of human individuals to MUSCENONE® was evaluated by performing an odor detection threshold (ODT) test. The ODT test consisted of identifying the concentration for which 50% of the panelists are able to determine which of three containers contains the target compound Muscenone® in a forced-choice triangle tests. Two tests were performed to calculate the ODT in mixtures containing Muscenone® plus a perceivable background odor of chemically similar molecules a) the enhancer tridecylenic aldehyde and b) the non-enhancing volatile compound, nonanal.
27 panelists were given a series of triangle tests with increasing concentration of MUSCENONE® in the presence of nonanal at a concentration of 0.1%. Within each triangle test, the three samples contained nonanal at 0.1% and one sample also contained MUSCENONE®. In each triangle test, the panelists were asked to identify the one sample that was different from the other two samples. The ODT was calculated by fitting a non-linear regression model onto the data and calculating the MUSCENONE® concentration at which the proportion of correct responses was equal to ⅔ (the midpoint between chance rate ⅓ and all correct answers 1). […]

Compound: CCCCCCCC=O [octanal]
- Inhibition of the activity of the OR5AN1 olfactory receptor [1]: inhibit the activity

Compound: CCC/C=C/C=O [Compound 12]
- Hit Type [2]: Enhancement

Compound: CCCCCCCCCC/C=C/CO [(E)-2-tridecenol]
- Inhibition of the activity of the OR5AN1 olfactory receptor [1]: inhibit the activity

Compound: CCCCCC/C=C/C=O [nonylenic aldehyde]
- Allosteric modulation properties [3]: allosteric modulation properties similar to TDA

Compound: CC(C)c1cccc(C(C)CC=O)c1 (stereo not drawn) [3-(3-propan-2-ylphenyl)butanal]
- Inhibition of the activity of the OR5AN1 olfactory receptor [1]: inhibit the activity

Compound: CC1C2CC(CC2C2CCCC(O)C2)C1(C)C (stereo not drawn) [sandenol]
- Inhibition of the activity of the OR5AN1 olfactory receptor [1]: inhibit the activity

Compound: CCCCCCCCCC/C=C/C(=O)O [(E)-2-tridecenoic acid]
- Inhibition of the activity of the OR5AN1 olfactory receptor [1]: inhibit the activity

Compound: (2E)-7,8-dimethyl-2,7-nonadienal [Compound 1]
- Hit Type [2]: Agonist

Compound: CC/C=C\CC/C=C/CO [(E)-2-(Z)-6-nonadien-1-ol]
- Inhibition of the activity of the OR5AN1 olfactory receptor [1]: inhibit the activity

Compound: CC(=O)c1ccccc1N [Compound 20]
- Hit Type [2]: Enhancement

Compound: CCCCCC/C=C/C=O [Compound 6]
- Hit Type [2]: Enhancement

Compound: CCCCCCCC/C=C/C(=O)O [(E)-2-undecenoic acid]
- Inhibition of the activity of the OR5AN1 olfactory receptor [1]: inhibit the activity

Compound: C=CCCCCCCCCC(=O)O [undecenoic acid]
- OR5AN1 Musk response enhancement [4]: absence of enhancement

Compound: CCCCC/C=C/CCC=O [(E)-dec-4-enal]
- Inhibition of the activity of the OR5AN1 olfactory receptor [1]: inhibit the activity

Compound: CC/C(=C\CC1CC=C(C)C1(C)C)CO (stereo not drawn) [bacdanol]
- Inhibition of the activity of the OR5AN1 olfactory receptor [1]: inhibit the activity

Compound: CCCCCCCCC/C=C/C(=O)O [(E)-2-dodecenoic acid]
- Inhibition of the activity of the OR5AN1 olfactory receptor [1]: inhibit the activity

Compound: CCC/C=C/C=O [(E)-2-hexenal]
- Inhibition of the activity of the OR5AN1 olfactory receptor [1]: inhibit the activity

Compound: CCCCCOC(=O)CCCC [pentyl valerate]
- Inhibition of the activity of the OR5AN1 olfactory receptor [1]: inhibit the activity

Compound: CCCCCCC/C=C/C=O [Compound 11]
- Hit Type [2]: Enhancement

Compound: CC(=O)c1c(C)c([N+](=O)[O-])c(C(C)(C)C)c([N+](=O)[O-])c1C [Musk ketone]
- Activation of the OR5AN1 olfactory receptor ([5]; FIG. 1a): specifically activated
- Span (HTRF ratio) ([5]; efficacy, maximum span): 4312 HTRF ratio

Compound: SCc1ccco1 [furfuryl mercaptan]
- Inhibition of the activity of the OR5AN1 olfactory receptor [1]: inhibit the activity

Compound: O=CCCc1ccccc1 [3-phenylpropanal]
- Inhibition of the activity of the OR5AN1 olfactory receptor [1]: inhibit the activity

Compound: CC1CC=CCCCCCCCCCC(=O)C1 (stereo not drawn) [MUSCENONE®]
- Activation of the OR5AN1 olfactory receptor ([5]; FIG. 1a): specifically activated
- Span (HTRF ratio) ([5]; efficacy, maximum span): 3629 HTRF ratio
- Activity (span) (OR5AN1 allele 3; allele 3, absence of enhancer): 2311 relative fluorescent HTRF units
- EC50 (OR5AN1 allele 3; allele 3, absence of enhancer): 9 µM
- EC50 (OR5AN1 allele 3; allele 3, in the presence of 250 μM tridecylenic aldehyde): 1.5 µM
- Activity (span) (OR5AN1 allele 3; allele 3, in the presence of tridecylenic aldehyde): 4663 relative fluorescent HTRF units
- Activity (span) (OR5AN1 allele 4; allele 4, absence of enhancer): 2328 relative fluorescent HTRF units
- EC50 (OR5AN1 allele 4; allele 4, absence of enhancer): 10.1 µM
- EC50 (OR5AN1 allele 4; allele 4, in the presence of 250 μM tridecylenic aldehyde): 1.6 µM
- Activity (span) (OR5AN1 allele 4; allele 4, in the presence of tridecylenic aldehyde): 5026 relative fluorescent HTRF units
- ODT (odor detection threshold) ([6]; in the presence of nonanal at 0.1%, 27 panelists): 0.93%
- ODT (odor detection threshold) ([6]; in the presence of tridecylenic aldehyde at 0.1%, 28 panelists): 0.09%

Compound: CC/C=C\CCCCCO [(Z)-6-nonen-1-ol]
- Inhibition of the activity of the OR5AN1 olfactory receptor [1]: inhibit the activity

Compound: COc1ccccc1/C=C/C=O [(E)-3-(2-methoxyphenyl)prop-2-enal]
- Inhibition of the activity of the OR5AN1 olfactory receptor [1]: inhibit the activity

Compound: CC12C3CC(CC31)[C@]2(C)C/C=C/C=O (single isomer, unassigned; (+))
- Inhibition of the activity of the OR5AN1 olfactory receptor [1]: inhibit the activity

Compound: (2E)-7-methyl-2,6-octadienal [Compound 3]
- Hit Type [2]: agonists

Compound: CCCCCCCCCCC/C=C/C=O [Compound 7, (E)-2-tetradecenal]
- Hit Type [2]: Agonist

Compound: CC(C)=CCCC(C)C/C=C/C=O (racemic) [Compound 5, (+−)-(2E)-5,9-dimethyl-2,8-decadienal]
- Hit Type [2]: Agonist

Compound: C[C@@H]1CCCCCCCCCCCCC(=O)C1 [Muscone]
- Activation of the OR5AN1 olfactory receptor ([5]; FIG. 1a): specifically activated
- Span (HTRF ratio) ([5]; efficacy, maximum span): 2979 HTRF ratio

Compound: Cc1c([N+](=O)[O-])c(C)c([N+](=O)[O-])c(C(C)(C)C)c1[N+](=O)[O-] [Musk xylol]
- Activation of the OR5AN1 olfactory receptor [5]: specifically activated
- Span (HTRF ratio) [5]: 4217 HTRF ratio

Compound: CCCCCCCCC=O [nonanal, reference compound]
- OR5AN1 Musk response enhancement [4]: non-enhancing

Compound: Trans-2,6,7-dimethyl-2,6-octadienal [Compound 9]
- Hit Type [2]: agonists

Compound: C/C(C=O)=C\CCc1ccc(C(C)(C)C)cc1 [trans-5-(4-tert-butylphenyl)-2-methylpent-2-enal]
- Inhibition of the activity of the OR5AN1 olfactory receptor [1]: inhibit the activity

Compound: CC1=CCCC2(CCCCC2)C1/C=C/C=O (racemic) [(+−)-(2E)-3-(2-methylspiro [5.5]undec-2-en-1-yl) acrylaldehyde]
- Inhibition of the activity of the OR5AN1 olfactory receptor [1]: inhibit the activity

Compound: COC(=O)c1ccccc1OC [Compound 16]
- Hit Type [2]: Enhancement

Compound: CCCCCCCC=CC=O [Compound 2-decenal, 2-decenal]
- Allosteric modulation properties [3]: allosteric modulation properties similar to TDA

Source: US20230125249A1 (FIRMENICH SA, priority 2017, published 2023)
